These results are taken from US9862704B2, “Oxindole derivatives carrying an amine-substituted piperidyl-acetidinyl substituent and use thereof for treating vasopressine-related diseases” (AbbVie Deutschland GmbH & Co. KG, priority 2013, dated 2018).

As usually defined, the pKi is −log10 of the Ki, conventionally taken in molar units.

The structures appear in SMILES notation. pKi: −log10 of the molar value.

The target in test [1] is T1, human vasopressin V1b receptor (Homo sapiens, UniProt P47901).
T1 sequence (P47901 1-424): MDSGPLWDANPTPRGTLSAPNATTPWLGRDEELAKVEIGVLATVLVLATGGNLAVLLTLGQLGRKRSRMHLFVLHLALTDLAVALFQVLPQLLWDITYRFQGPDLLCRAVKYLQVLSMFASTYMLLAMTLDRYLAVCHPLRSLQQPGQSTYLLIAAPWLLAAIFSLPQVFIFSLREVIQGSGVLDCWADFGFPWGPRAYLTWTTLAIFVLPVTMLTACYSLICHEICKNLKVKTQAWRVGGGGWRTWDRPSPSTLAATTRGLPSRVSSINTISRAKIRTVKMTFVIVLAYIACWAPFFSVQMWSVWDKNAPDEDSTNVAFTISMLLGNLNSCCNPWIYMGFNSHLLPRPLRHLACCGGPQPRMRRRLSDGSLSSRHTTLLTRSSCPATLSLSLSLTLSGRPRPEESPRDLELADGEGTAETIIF
As to the kind of experiment: biochemical.

Test [2] deals with human vasopressin V1a receptor (Homo sapiens, UniProt P37288). As to the kind of experiment: Vasopressin V1a receptor binding assay. Particulars: selectivity quotient, human V1a vs human V1b.
human vasopressin V1a receptor, sequence (P37288 whole entry): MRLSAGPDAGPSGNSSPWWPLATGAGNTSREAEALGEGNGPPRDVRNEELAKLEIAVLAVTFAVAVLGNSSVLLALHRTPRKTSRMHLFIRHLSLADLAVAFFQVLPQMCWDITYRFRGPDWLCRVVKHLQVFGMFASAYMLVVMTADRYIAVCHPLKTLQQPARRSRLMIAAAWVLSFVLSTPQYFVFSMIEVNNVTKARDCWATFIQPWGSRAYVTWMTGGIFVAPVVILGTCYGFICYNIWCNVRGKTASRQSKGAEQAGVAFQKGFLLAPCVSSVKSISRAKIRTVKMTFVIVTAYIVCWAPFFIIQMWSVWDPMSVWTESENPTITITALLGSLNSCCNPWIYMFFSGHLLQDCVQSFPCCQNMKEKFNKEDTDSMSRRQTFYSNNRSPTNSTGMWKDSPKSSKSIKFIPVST

In test [1], `CCOc1ncccc1[C@]1(NC(=O)N2CC(N3CCC(N4CCCCC4)CC3)C2)C(=O)N(S(=O)(=O)c2ccc(OC)cc2OC)c2ccc(C#N)cc21` [Example 1, N-[(3S)-5-cyano-1-(2,4-dimethoxyphenyl)sulfonyl-3-(2-ethoxy-3-pyridyl)-2-oxoindolin-3-yl]-3-[4-(1-piperidyl)-1-piperidyl]azetidine-1-carboxamide] gave a pKi of over 9.00. Moreover, in test [2], the “Ki(hV1a)/Ki(hV1b)” value is “+++ (>75)”. Regarding `CCOc1ncccc1[C@]1(NC(=O)N2CC(N3CCC(N(C)C)CC3)C2)C(=O)N(S(=O)(=O)c2ccc(OC)cc2OC)c2ccc(C#N)cc21` [Example 2, (S)—N-(5-cyano-1-((2,4-dimethoxyphenyl)sulfonyl)-3-(2-ethoxypyridin-3-yl)-2-oxoindolin-3-yl)-3-(4-(dimethylamino)piperidin-1-yl)azetidine-1-carboxamide], in test [1], the pKi is 8.00 to 9.00. The “Ki(hV1a)/Ki(hV1b)” value in test [2] is on record as “+++ (>75)”.

On to `CCOc1ncccc1[C@]1(NC(=O)N2CC(N3CCC(N(CC)CC)CC3)C2)C(=O)N(S(=O)(=O)c2ccc(OC)cc2OC)c2ccc(C#N)cc21` [Example 3, (S)—N-(5-cyano-1-((2,4-dimethoxyphenyl)sulfonyl)-3-(2-ethoxypyridin-3-yl)-2-oxoindolin-3-yl)-3-(4-(diethylamino)piperidin-1-yl)azetidine-1-carboxamide], for which, in test [1], the pKi was 8.00 to 9.00. Besides, in test [2], the “Ki(hV1a)/Ki(hV1b)” value was “+++ (>75)”. Compound `CCOc1ncccc1[C@]1(NC(=O)N2CC(N3CCC(N4CCCC4)CC3)C2)C(=O)N(S(=O)(=O)c2ccc(OC)cc2OC)c2ccc(C#N)cc21` [Example 4, (S)—N-(5-cyano-1-((2,4-dimethoxyphenyl)sulfonyl)-3-(2-ethoxypyridin-3-yl)-2-oxoindolin-3-yl)-3-(4-(pyrrolidin-1-yl)piperidin-1-yl)azetidine-1-carboxamide] gave a negative-log Ki (pKi) in test [1] of 8.00 to 9.00. Also, the “Ki(hV1a)/Ki(hV1b)” value in test [2] was “+++ (>75)”. The matching figures for `COc1ccc(S(=O)(=O)N2C(=O)[C@@](NC(=O)N3CC(N4CCC(N5CCCCC5)CC4)C3)(c3cccnc3OC)c3cc(C#N)ccc32)c(OC)c1` [Example 5, (S)-3-([1,4′-bipiperidin]-1′-yl)-N-(5-cyano-1-((2,4-dimethoxyphenyl)sulfonyl)-3-(2-methoxypyridin-3-yl)-2-oxoindolin-3-yl)azetidine-1-carboxamide]: over 9.00 and “+++ (>75)”. As for `COc1ccc(S(=O)(=O)N2C(=O)[C@@](NC(=O)N3CC(N4CCC(N5CCCC5)CC4)C3)(c3cccnc3OC)c3cc(C#N)ccc32)c(OC)c1` [Example 6, (S)—N-(5-cyano-1-((2,4-dimethoxyphenyl)sulfonyl)-3-(2-methoxypyridin-3-yl)-2-oxoindolin-3-yl)-3-(4-(pyrrolidin-1-yl)piperidin-1-yl)azetidine-1-carboxamide], in test [1], the negative-log Ki (pKi) was 8.00 to 9.00. Also, the “Ki(hV1a)/Ki(hV1b)” value in test [2] is reported as “+++ (>75)”. The matching figures for `CCOc1ncccc1[C@]1(NC(=O)N2CC(N3CCC(N4CCC4)CC3)C2)C(=O)N(S(=O)(=O)c2ccc(OC)cc2OC)c2ccc(C#N)cc21` [Example 7, (S)-3-(4-(azetidin-1-yl)piperidin-1-yl)-N-(5-cyano-1-((2,4-dimethoxyphenyl)sulfonyl)-3-(2-ethoxypyridin-3-yl)-2-oxoindolin-3-yl)azetidine-1-carboxamide]: 8.00 to 9.00 and “+++ (>75)”. Take `CCOc1ncccc1[C@]1(NC(=O)N2CC(N3CCC(N4CCCCC4)CC3)C2)C(=O)N(S(=O)(=O)c2ccc(OC)cc2OC)c2ccc(Cl)cc21` [Example 8, (S)-3-([1,4′-bipiperidin]-1′-yl)-N-(5-chloro-1-((2,4-dimethoxyphenyl)sulfonyl)-3-(2-ethoxypyridin-3-yl)-2-oxoindolin-3-yl)azetidine-1-carboxamide]: the negative-log Ki (pKi) in test [1] is over 9.00. Still for that read-out and setting: the value for `CCOc1ncccc1[C@]1(NC(=O)N2CC(N3CCC(N4CCCC4)CC3)C2)C(=O)N(S(=O)(=O)c2ccc(OC)cc2OC)c2ccc(Cl)cc21` [Example 9, (S)—N-(5-chloro-1-((2,4-dimethoxyphenyl)sulfonyl)-3-(2-ethoxypyridin-3-yl)-2-oxoindolin-3-yl)-3-(4-(pyrrolidin-1-yl)piperidin-1-yl)azetidine-1-carboxamide] was over 9.00.
